Read-outs that look alike come from different tables or passages of the source.
What was measured:
[1] = system: U937 cells; test: Counter screen: cell viability without TSQ cocktail (off target effect); assay type: cell-based
Procedure: In parallel, all compounds are tested for their ability to affect cell viability. The same U937 cells are treated with compound in DMSO without the TSQ cocktail. This counter screen enables evaluation of off-target effects. In this case gain, cell viability is measured by flow cytometry after PI staining.

[2] = system: wild type U937 cells; test: Cell death assay, TSQ-induced necroptosis in U937 cells (PI, flow cytometry); assay type: cell-based, human; conditions: for IC50: Homo sapiens
Text: (§1) Mouse dermal fibroblasts (MDFs) were isolated from three MlkI^−/− mice and three congenic wild type mice and then immortalized by SV40 large T antigen to generate three biologically independent cell lines, as described in Murphy J M, et al. (2013), Immunity 39(3):443-453. Immortalized MDFs were similarly prepared from three Ripk3^−/− mice and congenic wild type mice. MDFs and HEK293T were maintained in Dulbecco's modified Eagle's medium (DMEM) supplemented with 8-10% v/v fetal calf serum (FCS), and 5 μg/mL puromycin for lines stably transduced with inducible expression constructs for MLKL. U937 cells were cultured in RPMI1640 supplemented with 8% v/v FCS. Cell death assays were carried out in 24 well plates, seeding 1×10^5 cells per well. Cells attached over 4 h in the presence of 10 ng/mL doxycycline or 20 ng/mL were then treated with assorted combinations of Necrostatin (50 μM) and Q-VD-OPh (5 μM) 30 min prior to addition of TNF (100 ng/mL) and Smac mimetic (500 nM). After 24 h for MDF cells or 48 h for U937 cells, cells were harvested and PI positive cells (1 μg/mL) quantified using a BD FACSCalibur flow cytometer.

[3] = system: U937 human histiocytic leukemia cell line; test: Screening for inhibition of TSQ induced necroptosis, 96 well plate format; assay type: cell-based
Procedure: Screening Compounds for Inhibition of TSQ Induced Necroptosis, 96 Well Plate Format.
U937 human histiocytic leukemia cell line.
35,000 per well in 120 μL of media, counted and plated immediately prior to addition of inhibitor and death stimuli. Final well volume of 150 μL after addition of compounds and death stimuli
HTRPMI (WEHI Media kitchen, contains L-Glutamine and penicillin, streptomycin)—supplemented with 7.4% v/v FCS (Gibco, Precision Plus. Lot #1221437)
48 hours following addition of compounds and death stimuli
DMSO Final Concentration (% v/v): 0.2%
Compounds that are in the Death Stimulation Cocktail and their Final Concentrations: • hTNF-Fc (100 ng/ml)—produced by Silke lab, WEHI • Compound A (500 nM)—Smac mimetic, Tetralogic • Q-VD-OPh (10 μM)—MP Biomedicals
Analysis: • Cells treated with PI staining (1 μg/ml) and analysed by flow cytometry
TNF; S: Smac mimetic; Q: Q-VD-OPh): TSQ treatment ensures that cells specifically undergo necroptotic cell death. TNF activates the TNF receptor, Smac mimetic direct the signal away from proinflammatory signaling and toward the RIP1/RIP3-mediated cell death pathways, and Q-VD-OPh ensures that the apoptotic response is blocked leaving only the programmed necrosis response. The compounds' activity (solution in DMSO) tested in this TSQ-induced assay is evaluated by measuring their ability to block cell death as measured by flow cytometry after PI staining.

[4] = target: T1, human MLKL(190-471) pseudokinase domain (Homo sapiens, UniProt Q8NB16); test: Surface Plasmon Resonance (SPR) binding, human MLKL; design: made in house; host or cells: Sf21 insect cells; conditions: read-out: Affinity (Kd) as determined by SPR
T1 sequence (Q8NB16 190-471): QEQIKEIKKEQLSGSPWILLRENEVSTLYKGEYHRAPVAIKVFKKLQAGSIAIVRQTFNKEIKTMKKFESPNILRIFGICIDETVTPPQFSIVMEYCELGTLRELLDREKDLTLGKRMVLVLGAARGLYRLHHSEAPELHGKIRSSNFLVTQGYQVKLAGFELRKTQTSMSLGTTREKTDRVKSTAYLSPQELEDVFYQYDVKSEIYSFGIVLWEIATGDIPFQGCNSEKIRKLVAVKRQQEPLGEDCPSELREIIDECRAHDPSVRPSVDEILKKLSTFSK
Text: Double His-tagged MLKL and an unrelated negative control reference protein were immobilized on an NTA Capture chip charged with Ni^2+ according to manufacturer's instructions. In some instances, double His-tagged proteins were captured via Ni^2+/NTA chelation on a series S sensor chip containing carboxymethylated dextran surface pre-immobilized with nitrilotriacetic acid (NTA). The surface was then activated and enhanced with NHS/EDC mixture and His captured proteins covalently coupled to the surface as succinamide esters. Ethanolamine was injected later to block any unreacted esters. Unbound Ni^2+ and non-covalently bound proteins were eluted by EDTA injections.
Typical immobilization levels were 2000-3000 Response Units (RU). Flow cell 1 was left blank as a reference surface. Immobilization experiments were carried out at 25° C. in a running buffer containing 20 mM HEPES (pH 8.0), 200 mM NaCl and 0.005% (v/v) surfactant P20.
Binding experiments were carried out in Running Buffer+2% v/v DMSO. […] Data were reduced, solvent corrected, and double referenced by Biacore T200 Evaluation Software. Data were fit globally to a two state kinetic interaction model and the Kd determined from the (kd/ka) ratio. A 1:1 binding stoichiometry was inferred from the steady state binding curves and the maximum observed Response Unit (RU) levels.

[5] = system: wild type MDFs (mouse dermal fibroblasts); test: Cell death assay, TSQ-induced necroptosis in MDFs (PI, flow cytometry); assay type: cell-based; conditions: wild type MDFs; at same or less than 1 μM
Text: as §1

[6] = U937 without TSQ cocktail, compound at 500 nM
[7] = U937 without TSQ cocktail, compound at 1 uM
[8] = U937 without TSQ cocktail, compound at 5 uM
[9] = U937 without TSQ cocktail, compound at 10 uM
[10] = U-937, U937, TSQ, 48 hours, unit not given in Table 2 (titrations given in nM), read-out: Cell based assay IC50
[11] = U-937, 48 h, read-out: Cell based assay Average
[12] = U-937, 48 h, read-out: Cell based assay IC50
[13] = U-937, U937, TSQ, 48 hours, average IC50, unit not given in Table 2 (titrations in nM), read-out: Cell based assay Average

SMILES | Off target effect (% cell death) at 500 nM [1, 6] [%] | Off target effect (% cell death) at 1 uM [1, 7] [%] | Off target effect (% cell death) at 5 uM [1, 8] [%] | Off target effect (% cell death) at 10 uM [1, 9] [%] | IC50 [3, 10] [nM] | IC50 [3, 13] [nM] | other results
CN(c1ccc(NC(=O)Nc2ccccc2)cc1)c1ccnc(Nc2cccc(S(N)(=O)=O)c2)n1 [Compound 2] | 24 | 23 | 32 | 87 | 123 |  | IC50 ([2]; U-937, Table 1, U937 cells, TSQ-induced necroptosis, read-out: Inhibition of necroptosis (IC50)): 0.4 to 0.8 µM; Kd [4]: 1.3 µM
CN(c1ccc(NC(=O)Nc2ccc(OC(F)(F)F)cc2)cc1)c1ccnc(Nc2ccc(S(N)(=O)=O)cc2)n1 [Compound 4, 4-(4-(Methyl(4-(3-(4-(trifluoromethoxy)phenyl)ureido)phenyl)amino)pyrimidin-2-ylamino)benzenesulfonamide] |  |  |  |  |  |  | IC50 ([2]; U-937, read-out: Inhibition of necroptosis (IC50)): > 1 µM; IC50 [3, 11]: > 5000 nM; IC50 [3, 12]: 1460 nM; Kd [4]: 4.7 µM
Cc1ccc(Nc2nccc(N(C)c3ccc(NC(=O)Nc4ccc(OC(F)(F)F)cc4)cc3)n2)cc1C(=O)N(C)C [Compound 19, N,N,2-trimethyl-5-((4-(methyl(4-(3-(4-(trifluoromethoxy)phenyl)ureido)phenyl)amino)pyrimidin-2-yl)amino)benzamide] | 28 | 30 | 26 | 70 | 114 | 85.5 | 
Cc1cc(OC(F)(F)F)ccc1NC(=O)Nc1ccc(N(C)c2ccnc(Nc3cccc(S(N)(=O)=O)c3)n2)cc1 [Compound 20, 3-((4-(Methyl(4-(3-(2-methyl-4-(trifluoromethoxy)phenyl)ureido)phenyl)-amino)pyrimidin-2-yl)amino) benzenesulfonamide] |  |  |  |  | 143 | 109 | Off target effect (% cell death) at 500 nM ([1]; human, 500 nM): 24%; Off target effect (% cell death) at 1 uM ([1]; human, 1 uM): 29%; Off target effect (% cell death) at 5 uM ([1]; human, 5 uM): 33%; Off target effect (% cell death) at 10 uM ([1]; human, 10 uM): 80%
Cc1ccc(Nc2nccc(N(C)c3ccc(NC(=O)Nc4ccc(OC(F)(F)F)cc4)cc3)n2)cc1S(N)(=O)=O [Compound 21, 2-Methyl-5-((4-(methyl(4-(3-(4-(trifluoromethoxy)phenyl)ureido)phenyl)amino)pyrimidin-2-yl)amino) benzenesulfonamide] | <20 | <20 | 51 | 79 | 72.7 | 58.4 | 
CN(c1ccc(NC(=O)C(C)(C)c2ccc(OC(F)(F)F)cc2)cc1)c1ccnc(Nc2cccc(S(N)(=O)=O)c2)n1 [Compound 22, 2-methyl-N-(4-(methyl(2-((3-sulfamoylphenyl)amino)pyrimidin-4-yl)amino)phenyl)-2-(4-(trifluoromethoxy)phenyl)propanamide] | <20 | <20 | 35 | 80 |  | 204 | 
COCCNS(=O)(=O)c1cccc(Nc2nccc(N(C)c3ccc(NC(=O)Nc4ccc(OC(F)(F)F)cc4)cc3)n2)c1 [Compound 23, N-(2-Methoxyethyl)-3-(4-(methyl(4-(3-(4-(trifluoromethoxy)phenyl)-ureido)phenyl)amino)pyrimidin-2-ylamino)benzenesulfonamide] | 21 | 21 | 22 | 64 | 39 | 43.9 | 
NS(=O)(=O)c1cccc(Nc2nccc(N(c3ccc(NC(=O)Nc4ccc(OC(F)(F)F)cc4)cc3)C3CC3)n2)c1 [Compound 24, 3-((4-(Cyclopropyl(4-(3-(4-(trifluoromethoxy)phenyl)ureido)-phenyl)amino)-pyrimidin-2-yl)amino)benzenesulfonamide] | 20 | 21 | 66 | 80 |  |  | IC50 [3, 11]: 176 nM; IC50 [3, 12]: 144 nM
CN(c1ccc(NC(=O)Nc2ccc(OC(F)(F)F)cc2)cc1)c1ccnc(Nc2cccc(S(C)(=O)=O)c2)n1 [Compound 25, 1-(4-(Methyl(2-((3-(methylsulfonyl)phenyl)amino)pyrimidin-4-yl)amino)phenyl)-3-(4-(trifluoromethoxy)phenyl)urea] | <20 | <20 | 43 | 86 | 21.7 | 32.9 | 
CCN(c1ccc(NC(=O)Nc2ccc(OC(F)(F)F)cc2)cc1)c1ccnc(Nc2cccc(S(N)(=O)=O)c2)n1 [Compound 26, 3-((4-(ethyl(4-(3-(4-(trifluoromethoxy)phenyl)ureido)phenyl)-amino)pyrimidin-2-yl)amino)benzenesulfonamide] | <20 | <20 | 43 | 69 |  |  | IC50 [3, 11]: 93.6 nM; IC50 [3, 12]: 126 nM
CN(c1ccc(NC(=O)Nc2ccc(OC(F)(F)F)cc2)cc1)c1ccnc(Nc2cccc(CS(C)(=O)=O)c2)n1 [Compound 27, 1-(4-(Methyl(2-((3-((methylsulfonyl)methyl)phenyl)amino)pyrimidin-4-yl)amino)phenyl)-3-(4-(trifluoromethoxy)phenyl)urea] | 24 | 20 | 33 | 84 | 191 | 114 | 
CNC(=O)c1cc(Oc2ccc(NC(=O)Nc3ccc(Cl)c(C(F)(F)F)c3)cc2)ccn1 [Sorafenib, reference compound] |  |  |  |  |  |  | inhibition of TSQ-induced necroptosis [5]: did not inhibit; inhibition of TSQ-induced necroptosis ([2]; wild type U937 cells): did not inhibit
